This is an account of results in patent US20140283583A1, “SYSTEM FOR PIPELINE DRYING AND FREEZING POINT SUPPRESSION” (WEATHERFORD/LAMB, INC., priority 2007, published 2014).

For one series, the system named is Menidia beryllina. The following applies: 800 mg/L.
For series [1] the following is noted: FIG. 1, compared with methanol and ethylene glycol.
The conditions of series [2]: 50% w/w solution in water.
Another series has as its system Mysidopsis bahia. The following applies: 800 mg/L.

Take `O=C[O-].[K+]` [potassium formate]: the “larval survival and growth toxicity testing (normality tests)” value with Menidia beryllina and with Mysidopsis bahia was “passed the normality tests” each time. Moreover, the methane hydrate suppression result in series [1] was “between ethylene glycol and methanol”. The freezing point entry in series [2] was “around −60 °C”.
